Values quoted from earlier work in patent US7288243B2, “Aerosol drug inhibition of lung metastases” (Research Development Foundation, priority 2002, dated 2007).

Conditions: concurrent administration of cyclosporin; clinical studies

Increase of bioavailability of paclitaxel administered orally: 9 fold
Compound: CC(=O)O[C@H]1C(=O)[C@@]2(C)[C@H]([C@H](OC(=O)c3ccccc3)[C@]3(O)C[C@H](OC(=O)[C@H](O)[C@@H](NC(=O)c4ccccc4)c4ccccc4)C(C)=C1C3(C)C)[C@]1(OC(C)=O)CO[C@@H]1C[C@@H]2O [paclitaxel]
